Tests used:
[1] = tested on: CA-MRSA (USA300-0114); assay: MIC against community-acquired methicillin-resistant S. aureus (CA-MRSA); format: cell-based; conditions: Staphylococcus aureus, 72 h
Experimental: (§1) The term “minimum inhibitory concentration (MIC)” means the lowest concentration of an antimicrobial agent that will inhibit the visible growth of a microorganism after overnight incubation. MIC values against bacteria, for example, the Gram-positive Staphylococcus aureus and Enterococcus faecalis and the Gram-negative Escherichia coli and Pseudomonas aeruginosa were determined by standard methods. See also P. A. Wayne, Methods for Dilution Antimicrobial Tests for Bacteria that Grow Aerobically; Approved Standard, Ninth Edition, 2012, CLSI Document M07-A9, Vol. 32 No. 2.
(§2) Biological testing procedures were adapted from prior work by Melander and coworkers. For all biological assays, laboratory strains of methicillin-susceptible Staphylococcus aureus MSSA (SH1000), Staphylococcus aureus CA-MRSA (USA300-0114), Staphylococcus aureus HA-MRSA (ATCC 33591), Escherichia coli (MC4100), Enterococcus faecalis (OG1RF), Acinetobacter baumannii (ATCC 17978), were grown with shaking at 37 °C overnight from freezer stocks in 5 mL of the indicated media: SH1000, OG1RF, MC4100, USA300-0114, and ATCC 17978 were grown in BDTM Mueller-Hinton broth (MHB), whereas ATCC 33591 was grown in BDTM tryptic soy broth (TSB). The inoculum were then streaked onto Mueller-Hinton agar (MHA) plates and grown overnight at 37 °C. From the plates, single colonies were selected, diluted into 50 mL of fresh media and grown overnight at 37 °C with shaking for use in the MIC assays. Optical density (OD) measurements were obtained using a SpectraMax iD3 plate reader (Molecular Devices, United States).
(§3) Compounds were serially diluted two-fold from stock solutions (1.0 mM) to yield twelve 100 μL test concentrations, wherein the starting concentration of dimethyl sulfoxide (DMSO) was 2.5%. Overnight S. aureus, E. faecalis, E. coli, A. baumannii, USA300-0114 (CA-MRSA), and ATCC 33591 (HA-MRSA) cultures were diluted to ca. 10^6 CFU/mL in MHB or TSB and regrown to mid-exponential phase, as determined by optical density recorded at 600 nm (OD600). All cultures were then diluted again to ca. 10^6 CFU/mL and 100 μL were inoculated into each well of a U-bottom 96-well plate (Corning, 351177) containing 100 μL of compound solution. Plates were incubated statically at 37 °C for 72 hours upon which wells were evaluated visually for bacterial growth. The MIC was determined as the lowest concentration of compound resulting in no bacterial growth visible to the naked eye, based on the highest value in three independent experiments. Aqueous DMSO controls were conducted as appropriate for each compound.
(§4) The prepared library of biscationic amphiphilic compounds was assessed for performance as antibacterial disinfectants by determining the minimum inhibitory concentration (MIC) for each against a panel of bacteria. The bacteria selected for the study were chosen to evaluate the broad spectrum antimicrobial performance of the QPCs, and therefore, included both Gram-positive and Gram-negative bacterial strains, including those with known antimicrobial resistance mechanisms. These bacteria include the Gram-positive strains of methicillin-susceptible Staphylococcus aureus [MSSA; SH1000], community-acquired methicillin-resistant Staphylococcus aureus [CA-MRSA; USA 300-0114], hospital-acquired methicillin-resistant Staphylococcus aureus [HA-MRSA; ATCC 33591] and the […], Escherichia coli [MC4100], Acinetobacter baumannii [ATCC 17498] and Pseudomonas aeruginosa [PAO1].

[2] = tested on: established biofilm; assay: Biofilm eradication (MBEC) over the strains tested; format: cell-based; conditions: pegged-lid microtiter plate assay
Experimental: A regrowth assay was used to establish the MBEC of a compound to evaluate the antibiofilm activity.
Biofilm eradication experiments were performed using a pegged-lid microtiter plate assay to determine the MBEC values for compounds of interest, as previously described. […] Sci. Rep. 2017, 7, 2003; and Raval, Y. S., Flurin, L., Mohamed, A., Greenwood-Quaintance, K. E., Beyenal, H., & Patel, R. In Vitro Activity of Hydrogen Peroxide and Hypochlorous Acid Generated by Electrochemical Scaffolds Against Planktonic and Biofilm Bacteria. Antimicrob Agents Chemother. 2021, 65, e01966-20. Briefly, […] of mid-log phase culture diluted to ca. 10^6 CFU/mL in tryptic soy broth (TSB) was added to wells of plat-bottom 96-well plates (Thermo Scientific, 266120) and covered with 96-pegged lid (Thermo Scientific, 445497). […] MBEC values were determined as the lowest test concentration that resulted eradicated biofilm (i.e., wells displaying no turbidity in the final plate).
Pleased by the activity of the phosphonium compounds, the inventors sought to further investigate the antibacterial properties while comparing the effects of the heteroatom on activity. To do so, the inventors determined the minimum biofilm eradication concentration (MBEC) of bisQPC ^MeP2P-12,12 and analogous bisQAC 12(2)12 using a pegged-lid microtiter plate assay.

[3] = tested on: MSSA (SH1000); assay: MIC against methicillin-susceptible S. aureus (MSSA); format: cell-based; conditions: Staphylococcus aureus; MSSA (SH1000); 72 hours, 37 °C; read-out: MIC
Experimental: as §1, §2, §3, §4

[4] = Dynamic surface tension (bubble pressure tensiometer); format: physicochemical; conditions: 100, 300 and 1000 ppm in deionized water, 22 °C; 10 to 10,000 ms surface age
Experimental: All samples were analyzed using a Krüss BPT Mobile bubble pressure tensiometer. Solutions of 12(2)12 and ^MeP2P-12,12 were made in concentrations of 100, 300 and 1000 ppm using deionized water. Measurements were conducted at 22+1 °C. Before each sample run, a new capillary tip was installed and the instrument was calibrated with deionized water. The dynamic surface tension (mN/m) was measured as a function of surface bubble age (30 collection points over the range of 10 to 10,000 ms).
In order to further investigate these highly analogous bis-cationic structures, a Krüss bubble pressure tensiometer was utilized to measure the dynamic surface tension of 12(2)12 and ^MeP2P-12,12.
Antimicrobial activity is expected to be affected by differences in solution behavior of amphiphilic molecules, such as the propensity to form micelles and solution dispersion rates. Structural factors such as nature of the charge and the alkyl chain length of the amphiphile have been previously reported to change the behavior of surfactants. These types of structural factors are consistent with the factors that influence the inventors' proposed mechanism of action for bacteria membrane disruption by multicationic QACs. […]

| SMILES | MIC [1] | ability to eradicate established biofilm (in words) [2] | MIC [3] | dynamic surface tension (in words) [4] |
| --- | --- | --- | --- | --- |
| CCCCCCCCCCCC[N+](C)(C)CC[N+](C)(C)CCCCCCCCCCCC [12(2)12, reference compound] | 2 µM | ability to eradicate established biofilm against three of the strains tested | 2 µM | behave almost identically in solution |
| CCCCCCCCCCCC[P+](C)(C)CC[P+](C)(C)CCCCCCCCCCC [^MeP2P-12,12] | 2 µM | ability to eradicate established biofilm against three of the strains tested | 2 µM | behave almost identically in solution |

— patent US20260374792A1, “PHENYL-FREE BISCATIONIC QUATERNARY PHOSPHONIUM COMPOUNDS AS ANTIMICROBIAL AGENTS” (priority 2022, published 2026)
